# Calls of active or inactive are those of the source. How the calls were made is not given here.
# Biological target: Chaperone protein DnaK (Escherichia coli (strain K12)) (UniProt P0A6Y8)
# Assay: E. coli DnaK SBD ligand binding – biophysical, NMR, chaperone (AID 1033)
# Details: Purified DnaK SBD
# Chaperone protein DnaK (Escherichia coli (strain K12)), sequence (P0A6Y8 whole entry, looked up): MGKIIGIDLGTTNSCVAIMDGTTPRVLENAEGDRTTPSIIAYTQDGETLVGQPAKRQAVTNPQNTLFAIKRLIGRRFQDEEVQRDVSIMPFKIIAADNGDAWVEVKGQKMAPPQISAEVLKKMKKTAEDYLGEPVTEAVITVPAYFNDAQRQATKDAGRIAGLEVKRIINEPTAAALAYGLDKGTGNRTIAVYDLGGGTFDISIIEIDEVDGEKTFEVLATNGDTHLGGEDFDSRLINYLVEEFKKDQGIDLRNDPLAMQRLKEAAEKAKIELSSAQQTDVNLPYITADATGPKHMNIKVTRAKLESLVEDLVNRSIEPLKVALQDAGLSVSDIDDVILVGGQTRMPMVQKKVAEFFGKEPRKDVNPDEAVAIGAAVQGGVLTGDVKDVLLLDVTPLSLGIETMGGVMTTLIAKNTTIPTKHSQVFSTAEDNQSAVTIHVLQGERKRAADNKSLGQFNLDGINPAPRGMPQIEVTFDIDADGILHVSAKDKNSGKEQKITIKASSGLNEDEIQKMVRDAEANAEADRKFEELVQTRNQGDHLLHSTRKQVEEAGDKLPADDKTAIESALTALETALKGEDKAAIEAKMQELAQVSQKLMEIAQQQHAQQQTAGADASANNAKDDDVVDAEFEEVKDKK
row,SMILES,Kd
1,N#Cc1cnn2c(C(F)(F)F)cc(C(F)(F)F)nc12,> 4 mM (inactive)
2,OCc1ccccc1CN1CCOCC1,> 4 mM (inactive)
3,S=C(Cc1cccnc1)N1CCOCC1,> 4 mM (inactive)
4,Cc1cc(C)n(C2CCS(=O)(=O)C2)n1 (stereo not given),> 4 mM (inactive)
5,Cc1c(/C=N\n2cnnc2)c2ccccc2n1C,> 4 mM (inactive)
6,Cc1c(CCO)c(=O)n2c([nH]c3ccccc32)c1C#N,> 4 mM (inactive)
7,CC(=O)c1c(C)nc(-c2ccc(Cl)cc2Cl)n1O,> 4 mM (inactive)
8,Cc1ccc(-c2cc(C(=O)N3CCCC3)no2)cc1,> 4 mM (inactive)
9,CC12CCC(O)CC1CCC1C2[C@H](O)CC2(C)C(C3=CC(=O)OC3)CCC12O (stereo not given in full),> 4 mM (inactive)
10,COc1ccc(-c2ccc(OC)cc2C(=O)O)cc1,> 4 mM (inactive)
11,Cc1c(C(=O)Nc2ccncc2)oc2c1C(=O)CC(C)(C)C2,> 4 mM (inactive)
12,C=CCc1ccc(O)c(OC)c1,> 4 mM (inactive)
13,Cc1cc(=O)n2nc(-c3ccccc3)sc2n1,> 4 mM (inactive)
14,O=C(CS(=O)(=O)c1ccccc1)N1CCCCCC1,> 4 mM (inactive)
15,Nc1ccc(N2CCOCC2)cc1,> 4 mM (inactive)
16,C(=N\n1cnnc1)/c1cccs1,> 4 mM (inactive)
17,Cn1nnc2cc(C(=O)NC3=NCCS3)ccc21,> 4 mM (inactive)
18,O=C(C1CCNCC1)N1CCCCCC1,> 4 mM (inactive)
19,O=C(Nc1ccc(-c2nnco2)cc1)c1ccccc1,> 4 mM (inactive)
20,CC1CN(C(=O)c2ccncc2)CC(C)O1 (stereo not given),> 4 mM (inactive)
21,O=C(O)CNS(=O)(=O)c1cccs1,> 4 mM (inactive)
22,CC1=CC(C)C(C(=O)O)C(C(=O)N2CCN(C)CC2)C1 (stereo not given),> 4 mM (inactive)
23,NCCc1nc2ccccc2[nH]1,> 4 mM (inactive)

row,SMILES,Kd
1,CNC(=O)Nc1cccc(C(F)(F)F)c1,> 4 mM (inactive)
2,COc1ccc(CN2CCNC(=O)C2CC(=O)O)cc1C (stereo not given),> 4 mM (inactive)
3,NC(=O)/C=C/C(=O)Nc1ccccc1,> 4 mM (inactive)
4,NC1=NC(=O)/C(=C\c2ccccc2)S1,> 4 mM (inactive)
5,NC(=O)C1(c2ccccc2)CCOCC1,> 4 mM (inactive)
6,Nc1nc(-c2ccc(Cl)cc2)nn1C(=O)c1cccnc1,> 4 mM (inactive)
7,Nc1c(Nc2ccccc2)c2ccccc2oc1=O,> 4 mM (inactive)
8,NC(=O)C1CCN(Cc2ccccc2)CC1,> 4 mM (inactive)
9,CC1=CCCC2C1(C)CCC(C)C2(C)CC/C(C)=C/C[n+]1cn(C)c2c(N)ncnc21 (stereo not given),> 4 mM (inactive)
10,NC1=NC(=O)/C(=C/c2cccs2)S1,> 4 mM (inactive)
11,O=C(O)c1ccc(Nc2nncc(=O)[nH]2)cc1,> 4 mM (inactive)
12,O=C1C(=O)N(CN2CCN(CCO)CC2)c2ccccc21,> 4 mM (inactive)
13,CCOc1cc(C)c(Cl)cc1S(=O)(=O)N(C)C,> 4 mM (inactive)
14,Nc1c(/C=C2\C=Nc3ccccc32)c(=O)nc2scnn12,> 4 mM (inactive)
15,CCCS(=O)(=O)N1CCN(c2ccccn2)CC1,> 4 mM (inactive)
16,Nc1cccc2cccnc12,> 4 mM (inactive)
17,c1ccc(C2NCCc3[nH]cnc32)cc1 (stereo not given),> 4 mM (inactive)
18,O=C(CSc1ccc(Cl)cc1)N1CCOCC1,> 4 mM (inactive)
19,Cc1ccccc1N1CCN(C(=O)C2CCCCC2)CC1,> 4 mM (inactive)
20,Cc1cc(NC(=O)c2cc(C)on2)no1,> 4 mM (inactive)
21,COc1ccccc1NC(=O)NC(N)=O,> 4 mM (inactive)
22,C/C1=C\CCC(=O)C2CC(C)(C)C2CC1 (stereo not given),> 4 mM (inactive)
23,O=C1CC2OCC=C3CN4CC[C@]56c7ccccc7N1C5[C@H]2[C@H]3CC46 (stereo not given in full),> 4 mM (inactive)

row,SMILES,Kd
1,O=C1NC(=S)NC(=O)C1=Cc1ccncc1,> 4 mM (inactive)
2,CNc1nc(OC)nc(N2CCOCC2)n1,> 4 mM (inactive)
3,Cc1nc(NC2=NCCC(=O)N2)nc2ccccc12,> 4 mM (inactive)
4,NC(N)=NOCC[C@H](N)C(=O)O,> 4 mM (inactive)
5,N#CCSc1nc2ccccc2c(=O)n1-c1ccccc1,> 4 mM (inactive)
6,NC(=O)Cn1cnc2ccccc21,> 4 mM (inactive)
7,CC(=O)n1c(N)nc2ccccc21,> 4 mM (inactive)
8,COc1ccc(C(=O)CC(=O)O)c2c1C=CC(C)(C)O2,> 4 mM (inactive)
9,S=C(NCC1CCCO1)NC1CC1 (stereo not given),> 4 mM (inactive)
10,Cc1nccn1CCC(=O)O,> 4 mM (inactive)
11,O=C(O)c1ccc(-c2cccs2)s1,> 4 mM (inactive)
12,Cc1nnsc1C(=O)Nc1cccc(S(N)(=O)=O)c1,> 4 mM (inactive)
13,Cc1cc2nc(SCC(=O)O)nc(C)c2cc1C,> 4 mM (inactive)
14,O=C1NC(=O)C(C(=S)Nc2ccccc2)C(=O)N1,> 4 mM (inactive)
15,c1cncc(Cn2cccc2)c1,> 4 mM (inactive)
16,COc1ccc(Cl)c(S(=O)(=O)N2CCCC2)c1,> 4 mM (inactive)
17,Cc1nc2ccccc2c(=O)n1NC(=O)C1CCCCC1,> 4 mM (inactive)
18,OCC12COC3c4ccccc4C(OC1)N32 (stereo not given),> 4 mM (inactive)
19,Cc1ccc(/C=C/C(=O)O)cc1S(=O)(=O)NCCO,> 4 mM (inactive)
20,C=CCCCCCCCCCCCC(O)CC(O)CO (stereo not given) (tested in a mixture with another compound),> 4 mM (inactive)
21,CC(=O)c1cccc(NC(=O)C=C(C)C)c1,> 4 mM (inactive)
22,COc1ccc(-c2nc(N)n(C(C)=O)n2)cc1,> 4 mM (inactive)
23,Cc1ccc(/C=N/NC(N)=O)o1,> 4 mM (inactive)

row,SMILES,Kd
1,C=C(C)C1(O)OC(=O)C=C1OC (stereo not given),> 4 mM (inactive)
2,O=C1c2cccc3cc(S(=O)(=O)O)cc(c23)C(=O)N1O,> 4 mM (inactive)
3,Cc1ccc(NC(=O)c2ccccc2)s1,> 4 mM (inactive)
4,O=C(O)C1Cc2ccccc2O1 (stereo not given),> 4 mM (inactive)
5,Cc1cc(N2CCN(C)CC2)ncn1,> 4 mM (inactive)
6,O=C(O)c1cn(-c2ccccc2)nc1-c1cccnc1,> 4 mM (inactive)
7,C=CCn1c(-c2ccc(O)cc2)n[nH]c1=S,> 4 mM (inactive)
8,CC(=O)Nc1sccc1C(N)=O,> 4 mM (inactive)
9,O=C(O)c1sccc1-n1cccc1,> 4 mM (inactive)
10,CCC(=O)Oc1ccc(N2C(=O)CCC2=O)cc1,> 4 mM (inactive)
11,O=c1cccc2n1C[C@H]1CNCC2C1,> 4 mM (inactive)
12,COc1cc2c(cc1OC)[C@@H]1C(=O)c3ccc(O)c(CC=C(C)C)c3O[C@@H]1CO2,> 4 mM (inactive)
13,O=C(O)Cn1nnn(-c2ccccc2)c1=S,> 4 mM (inactive)
14,O=S1(=O)C=CC(N2CCCCC2)C1 (stereo not given),> 4 mM (inactive)
15,CSc1nc(NC(C)(C)C)nc(N2CCOCC2)n1,> 4 mM (inactive)
16,O=C(O)c1cn(-c2ccccc2)nc1-c1ccncc1,> 4 mM (inactive)
17,O=C(O)c1cc(O)c2c(c1)C(=O)c1cc(O)cc(O)c1C2=O,> 4 mM (inactive)
18,CN1CCN(C(=O)c2ccccc2C(=O)O)CC1,> 4 mM (inactive)
19,O=C(O)Cn1cnc2ccccc2c1=O,> 4 mM (inactive)
20,COC(=O)c1cc2cc(N)ccc2s1,> 4 mM (inactive)
21,O=S(=O)(Cc1ccc(Cl)cc1)N1CCCC1,> 4 mM (inactive)

# Reference: PubChem BioAssay AID1033 (Sanford-Burnham Center for Chemical Genomics, 2008)
